Test results published in ChEMBL document CHEMBL3244018, “Synthesis and some pharmacological properties (4-beta-(2-thienyl)-L-alanine)oxytocin” (J Med Chem, 1978).
Active and inactive are the calls of the source. The rule behind the calls is not given here. Positions of bridges follow the written chain, without caps; N, C: chain ends. Non-standard residues stand in square brackets, D forms with d. Residues, ends and D or L forms follow the SMILES beside them. 2Thi = N[C@@H](Cc1cccs1)C(=O)O

Columns and labels:
[1] = Inhibition of oxytocin receptor in conscious chicken assessed as inhibition of oxytocin-induced vasodepressor response; design: species or system Gallus gallus
Rattus norvegicus [2] = species: Rattus norvegicus; test: Effect on pressor response in rat at 0.1 mg; type: functional
Rattus norvegicus [3] = species: Rattus norvegicus; test: Uterotonic potency in rat; type: functional
Rattus norvegicus [4] = species: Rattus norvegicus; test: Antidiuretic activity in rat at 0.1 mg; type: functional, Urine
[5] = biological target: T1, Oxytocin receptor (Rattus norvegicus) (UniProt P70536); test: Intrinsic activity at rat oxytocin receptor relative to oxytocin
T1 sequence (whole entry): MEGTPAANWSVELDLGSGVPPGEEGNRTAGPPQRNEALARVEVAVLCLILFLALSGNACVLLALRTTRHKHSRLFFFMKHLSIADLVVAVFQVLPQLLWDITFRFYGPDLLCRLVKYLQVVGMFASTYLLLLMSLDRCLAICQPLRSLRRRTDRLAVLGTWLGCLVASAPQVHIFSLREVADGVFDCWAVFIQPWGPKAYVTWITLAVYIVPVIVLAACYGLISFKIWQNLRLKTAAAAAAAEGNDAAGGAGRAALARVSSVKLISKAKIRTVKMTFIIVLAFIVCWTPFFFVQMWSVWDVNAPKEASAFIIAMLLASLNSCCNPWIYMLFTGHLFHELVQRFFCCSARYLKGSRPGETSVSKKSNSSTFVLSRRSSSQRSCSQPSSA

[6] = biological target: T1, Oxytocin receptor (Rattus norvegicus); test: Binding affinity to rat oxytocin receptor

Work on `CC[C@H](C)[C@@H]1NC(=O)[C@H](Cc2ccc(O)cc2)NC(=O)[C@@H](N)CSSC[C@@H](C(=O)N2CCC[C@H]2C(=O)N[C@@H](CC(C)C)C(=O)NCC(N)=O)NC(=O)[C@H](CC(N)=O)NC(=O)[C@H](Cc2cccs2)NC1=O` (H-CYI[2Thi]NCPLG-NH2; disulfide 1-6) yielded a pA2 [1] of 7.44, an Activity (Rattus norvegicus [2]) of less than 0.05 U/mg and an Activity (Rattus norvegicus [3]) of 0.51 U/mg. The Activity (Rattus norvegicus [4]) was less than 0.05 U/mg, the Intrinsic activity [5] was 64% and the Activity [6] was “inactive”.
